How the values were obtained:
[1] = tested on: rat plasma prolactin levels; test: Prolactin assay (plasma prolactin by ELISA); format: in vivo; conditions: male Sprague Dawley rats, s.c., one-hour post dose
From the text: As discussed above, hyperprolactinemia is a side effect that can be observed following administration of D2 antagonists. In contrast, administration of D2 agonists to human subjects results in large reductions in prolactin levels in blood (hypoprolactinemia).
Male Sprague Dawley rats were subcutaneously administered with vehicle or test compounds. Trunk blood was collected one-hour post dose and plasma evaluated by an ELISA assay to determine prolactin levels.

[2] = tested on: Male Long-Evans rats; test: Conditioned Avoidance Responding (CAR) assay; format: in vivo, rat; conditions: for motor impairment in CAR (shock escapes): dose not stated; for efficacy in CAR (shock avoidance): rats, dosed 60 min prior to testing
Method: Male Long-Evans rats were trained to traverse to the opposite side of a standard shuttle cage following presentation of an auditory and visual stimulus in order to avoid delivery of electric shock to the floor of the cage. Daily sessions consisted of up to 80 trials. If shock was delivered, animals always had the opportunity to escape the shock by traversing to the opposite side of the cage. Drug was administered (via s.c. or p.o. route) 60 min prior to testing and the percentage of trials in which shock was avoided and escaped was recorded.

[3] = tested on: CF-1 male mice; test: Catalepsy assay, mice; format: in vivo, mouse
Method: (§1) CF-1 male mice or Sprague Dawley rats are dosed (via i.p., p.o. or s.c. route) with a test compound at given concentrations or a vehicle. […] The length of time (in seconds) during which each mouse maintains the initial forepaw bar position is recorded (cataleptic pose). Maximum cut-off observation time is 60 seconds. Results are expressed as means (in sec) for each dose group.

[4] = tested on: Sprague Dawley rats; test: Catalepsy assay, rats; format: in vivo, rat
Method: as §1

[5] = tested on: D-amphetamine hyperlocomotion in habituated rats; test: D-amphetamine-induced hyperlocomotor activity (LMA) in habituated rat model; conditions: in vivo, sc, 1 mg/kg
Method: LMA was assessed in male Long Evans rats using a paradigm that included a habituation phase followed by administration of 1 mg/kg D-amphetamine. Animals were allowed to acclimatize to the testing room for 1 hour before being weighed and placed into activity chambers. Thirty minutes after LMA measurements began, animals were briefly removed, subcutaneously dosed with vehicle or test drug at different doses (μmol/kg), and returned to the chambers. After 30 minutes, animals were again removed and dosed with vehicle or D-amphetamine at 1 mg/kg (s.c.). After returning animals to the activity chambers, LMA was assessed for 60 minutes. […] Statistical analysis was made of total distance traveled after D-amphetamine administration using ANOVA and Tukey's post hoc analysis where appropriate. All values are expressed as Mean and SD.

[6] = target: D2S receptor (Homo sapiens, UniProt P14416); test: D2 receptor binding assay ([3H]-raclopride displacement)
Method: The ability of test compounds to displace ^3H-raclopride at the D2S receptor was determined on membranes from D2s-transfected CHO cells (Bmax 13 pmol/mg protein). An assay uses a standard 96-well glass fiber filter plate to retain radioligand bound by the receptor. Retained ^3H is determined in a TopCount scintillation plate counter following the addition of a liquid scintillant to each well. Compounds are evaluated for their potency using competition curve analysis, resulting in calculated Ki values.

[7] = target: D2s receptor (membranes from D2s stably-transfected CHO cells) (Homo sapiens, UniProt P14416); test: GTPγS assay, block of dopamine-stimulated [35S]-GTPγS binding
Chain of D2s receptor (membranes from D2s stably-transfected CHO cells) (P14416 1-414 isoform P14416-2): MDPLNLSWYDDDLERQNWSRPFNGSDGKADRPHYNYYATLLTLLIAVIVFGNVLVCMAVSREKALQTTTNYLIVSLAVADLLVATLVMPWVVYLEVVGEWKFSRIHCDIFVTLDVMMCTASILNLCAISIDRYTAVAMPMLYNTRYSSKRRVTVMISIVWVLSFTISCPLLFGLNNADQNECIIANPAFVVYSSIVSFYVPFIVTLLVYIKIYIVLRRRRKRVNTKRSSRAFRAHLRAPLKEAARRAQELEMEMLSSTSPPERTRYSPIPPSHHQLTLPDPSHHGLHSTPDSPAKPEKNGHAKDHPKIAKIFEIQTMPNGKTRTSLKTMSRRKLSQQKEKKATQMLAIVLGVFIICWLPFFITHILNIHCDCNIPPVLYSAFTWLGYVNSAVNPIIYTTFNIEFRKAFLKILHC
Method: GTPγS assay was performed substantially as described by Lazareno. […] Antagonist activity of compounds was determined by the ability of test compounds to block dopamine-stimulated [^35S]-GTPγS binding to cell membranes from D2s stably-transfected CHO cells.

Chain of D2S receptor (P14416 1-414 isoform P14416-2): as above

Row | Structure (SMILES) | motor impairment in CAR (shock escapes) [2] | Ki [6] [nM] | IC50 [7] [nM] | no observable effect level (NOEL) on plasma prolactin [1] [µmol/kg] | efficacy in CAR (shock avoidance) [2] | catalepsy ([3]; positive control) | catalepsy [4] | MED, reversal of LMA [5] [µmol/kg] | catalepsy ([3]; 30 μmol/kg)
1 | Cc1nc2n(c(=O)c1CCN1CCC(c3noc4cc(F)ccc34)CC1)CCCC2 [Risperidone] |  |  |  | 0.07 |  |  |  |  | 
2 | CCCN[C@@H]1Cc2cc3nc(N)sc3cc2C1 [Compound C3] | exhibited motor impairment | 115 | 437 | 10 | effective |  |  | 10 | exhibited catalepsy

The next lines start with results.

Row | motor impairment in CAR (shock escapes) [2] | Ki [6] [nM] | IC50 [7] [nM] | Structure (SMILES) | no observable effect level (NOEL) on plasma prolactin [1] [µmol/kg] | efficacy in CAR (shock avoidance) [2] | catalepsy ([3]; positive control) | catalepsy [4] | MED, reversal of LMA [5] [µmol/kg] | catalepsy ([3]; 30 μmol/kg)
3 | exhibited motor impairment |  |  | O=C(CCCN1CCC(O)(c2ccc(Cl)cc2)CC1)c1ccc(F)cc1 [Haloperidol] |  | effective | induced catalepsy | induced catalepsy |  | 
4 | exhibited motor impairment |  |  | O=C1CCc2ccc(OCCCCN3CCN(c4cccc(Cl)c4Cl)CC3)cc2N1 [Aripiprazole] | 2.2 | effective |  |  |  | 
5 |  | 151 | 417 | CN[C@@H]1Cc2cc3nc(N)sc3cc2C1 |  |  |  |  |  | 
6 |  | 21.9 | 74.1 | CCN(CC)[C@@H]1Cc2cc3nc(N)sc3cc2C1 |  |  |  |  |  | 
